The subject of series [1] is HCT-116. In words: Antiproliferative activity against human HCT116 cells after 3 days. The format is functional, cell-based. Conditions: HCT-116, 72 h.
For series [2], the system named is QG-56. In words: Antiproliferative activity against human QG56 cells after 3 days. The format is functional, cell-based. The following applies: QG-56, 72 h.
Series [3] deals with NCI-H460. In words: Antiproliferative activity against human NCI-H460 cells after 3 days. Conditions: NCI-H460, 72 h. The format is functional, cell-based.
For series [4], the system named is PC-6. In words: Ratio of IC50 for human PC6 expressing BCRP cells to IC50 for human PC6 cells carrying pRC. Format: functional.
The subject of series [5] is PC-6. In words: Antiproliferative activity against human PC6 expressing BCRP cells after 6 days. The following applies: PC-6, 144 h. The format is functional, cell-based.
Series [6] relates to PC-6. In words: Antiproliferative activity against human PC6 cells carrying pRC after 6 days. The format is functional, cell-based. The following applies: PC-6, 144 h.
The target of series [7] is T1, DNA topoisomerase 1 (Homo sapiens, UniProt P11387).
T1 sequence (P11387 whole entry): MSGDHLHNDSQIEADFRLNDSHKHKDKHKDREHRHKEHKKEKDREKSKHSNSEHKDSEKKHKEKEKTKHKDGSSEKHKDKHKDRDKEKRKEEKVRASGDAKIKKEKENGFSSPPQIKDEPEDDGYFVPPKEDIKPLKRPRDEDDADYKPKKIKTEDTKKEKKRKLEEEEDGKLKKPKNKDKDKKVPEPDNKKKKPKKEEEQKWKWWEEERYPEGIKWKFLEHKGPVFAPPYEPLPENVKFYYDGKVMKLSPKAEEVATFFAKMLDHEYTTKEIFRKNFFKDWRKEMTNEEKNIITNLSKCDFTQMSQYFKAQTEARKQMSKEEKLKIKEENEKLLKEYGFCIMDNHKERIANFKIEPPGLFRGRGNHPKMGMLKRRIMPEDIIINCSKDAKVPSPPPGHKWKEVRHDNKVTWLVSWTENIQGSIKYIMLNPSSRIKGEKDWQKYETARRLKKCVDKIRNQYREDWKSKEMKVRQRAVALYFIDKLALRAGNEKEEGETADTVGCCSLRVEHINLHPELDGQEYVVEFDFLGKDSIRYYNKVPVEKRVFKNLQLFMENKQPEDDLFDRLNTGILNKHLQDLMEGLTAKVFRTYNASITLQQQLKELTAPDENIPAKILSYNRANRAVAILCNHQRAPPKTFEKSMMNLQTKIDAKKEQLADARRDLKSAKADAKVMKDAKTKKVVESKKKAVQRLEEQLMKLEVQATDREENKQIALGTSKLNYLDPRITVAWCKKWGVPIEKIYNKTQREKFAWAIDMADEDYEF
In words: Inhibition of human topoisomerase 1.

Series [8] concerns HCT-116. In words: Antitumor activity against BCRP-negative human HCT116 cells xenografted in mouse at 100 mg/kg, iv administered as single bolus dose for 3 weeks. The format is functional, organism-based. The arrangement: dose 100 mg/kg. (In general: In xenograft studies the graft and the host belong to different species.)
For series [9], the system named is NCI-H460. In words: Antitumor activity against BCRP-positive human NCI-H460 cells xenografted in mouse at 40 mg/kg, iv administered as single bolus dose for 3 weeks. The format is functional, organism-based. Also on record: dose 40 mg/kg.
The test system of series [10] is NCI-H460. In words: Antitumor activity against BCRP-positive human NCI-H460 cells xenografted in mouse at 100 mg/kg, iv administered as single bolus dose for 3 weeks. Format: functional, organism-based. The arrangement: dose 100 mg/kg.
Series [11] relates to HCT-116. In words: Antitumor activity against BCRP-negative human HCT116 cells xenografted in mouse at 40 mg/kg, iv administered as single bolus dose for 3 weeks. The format is functional, organism-based. Also on record: dose 40 mg/kg.
A short description of series [12]: Toxicity to iv dosed mouse administered as single bolus dose for 3 weeks. The format is organism-based. Conditions: in vivo.

For orientation: IC50 means the concentration needed to halve the response being measured. Higher therefore signals lower potency.

Calls of active or inactive are those of the source. The rule behind the calls is not given here.

With `CC[C@@]1(O)C(=O)OCc2c1cc1n(c2=O)Cc2c-1nc1cccc3c1c2N(CCN1CCOCC1)C=N3`, the IC50 in [1] turned out to be 2.2 nM; in series [2] it was 9.4 nM; in series [3], 7.2 nM.
Consider `CC[C@@]1(O)C(=O)OCc2c1cc1n(c2=O)Cc2c-1nc1cccc3c1c2N(CCc1ccccc1)C=N3`, for which the results for the IC50 in [1], in series [2] and in series [3] were 0.36 nM, 2.1 nM and 0.91 nM, respectively.
For `CC[C@@]1(O)C(=O)OCc2c1cc1n(c2=O)Cc2c-1nc1cccc3c1c2N(CCC(C)C)C(CO)=N3` the same measures were 0.44 nM, 1.8 nM and 0.52 nM.
As for `CCc1c2c(nc3ccc(O)cc13)-c1cc3c(c(=O)n1C2)COC(=O)[C@]3(O)CC` [7-ETHYL-10-HYDROXYCAMPTOTHECIN], the IC50 came out at 0.55 nM in series [1]; 2.8 nM in series [2]; 3.3 nM in [3]; 5.1 nM in [5]; 0.43 nM in [6]; 5500 nM in series [7]. Moreover, the “Ratio IC50” value in series [4] worked out at 12.
As to `CC[C@@]1(O)C(=O)OCc2c1cc1n(c2=O)Cc2c-1nc1cccc3c1c2N(CCC(C)C)C(=S)N3`, the IC50 in [1] is 0.02 nM; in series [2], 0.16 nM; in series [3] it was 0.08 nM.
The like results for `CC[C@@]1(O)C(=O)OCc2c1cc1n(c2=O)Cc2c-1nc1cccc3c1c2N(CCN1CCOCC1)C(=O)N3` were, in that order, 3.6 nM, 18 nM and 26 nM.
For `CC[C@@]1(O)C(=O)OCc2c1cc1n(c2=O)Cc2c-1nc1cccc3c1c2N(CCC(C)C)C(=O)N3` the same measures were 0.05 nM, 0.58 nM and 0.72 nM.
For the compound `CCCCCN1C(C)=Nc2cccc3nc4c(c1c23)Cn1c-4cc2c(c1=O)COC(=O)[C@]2(O)CC`, the IC50 is 0.12 nM in series [1], 1.8 nM in [2] and 0.66 nM in series [3].
Turning to `CCCCCN1C=Nc2cccc3nc4c(c1c23)Cn1c-4cc2c(c1=O)COC(=O)[C@]2(O)CC`, the IC50 amounted to 0.36 nM in series [1]; 2.3 nM in series [2]; 2.3 nM in series [3]; 0.35 nM in [5]; 0.18 nM in series [6]; 2300 nM in series [7]. In addition, the outcome in [8], in [9], in [10] and in series [11] was Active. Besides, the “Ratio IC50” value in series [4] is given as 2. Moreover, the MTD at 504 h in series [12] amounted to 40 mg/kg.
Regarding `CCc1c2c(nc3ccc(OC(=O)N4CCC(N5CCCCC5)CC4)cc13)-c1cc3c(c(=O)n1C2)COC(=O)[C@]3(O)CC` [IRINOTECAN], in [12], the MTD at 504 h came out at 100 mg/kg.
As to `CCCCN1C(=O)Nc2cccc3nc4c(c1c23)Cn1c-4cc2c(c1=O)COC(=O)[C@]2(O)CC`, the results for the IC50 in series [1], in series [2] and in series [3] were 0.4 nM, 1.2 nM and 0.99 nM, respectively.
For `CC[C@@]1(O)C(=O)OCc2c1cc1n(c2=O)Cc2c-1nc1cccc3c1c2N(CCc1ccccc1)C(=O)N3` the same measures were 0.25 nM, 1.2 nM and 0.38 nM.
On to `CC[C@@]1(O)C(=O)OCc2c1cc1n(c2=O)Cc2c-1nc1cccc3c1c2N(CCC(C)C)C=N3`, for which the IC50 in series [1] is less than 0.04 nM; in series [2], 0.25 nM; in series [3] it was 0.11 nM.
The like results for `CCCCN1C=Nc2cccc3nc4c(c1c23)Cn1c-4cc2c(c1=O)COC(=O)[C@]2(O)CC` were, in that order, 0.52 nM, 2.3 nM and 1.6 nM.
For `CCCCCN1C(=O)Nc2cccc3nc4c(c1c23)Cn1c-4cc2c(c1=O)COC(=O)[C@]2(O)CC` the same measures were 0.85 nM, 8.5 nM and 8.2 nM.

(Values after ChEMBL document CHEMBL1153341, “Synthesis of new camptothecin analogs with improved antitumor activities” (Bioorg Med Chem Lett, 2009).)
